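Each compound was tested at five concentrations against cells in 96-well plates for 48 hours. The concentration for 50% growth inhibition is given as GI50.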 Active and inactive are the calls of the source. No stated cut-off is given here; in the data, active = GI50 up to about 1.1 µM and inactive = higher.
Columns and labels:
Assay in all cases: growth of human tumour cells (NCI), 48 h
LXFL 529 = tested on: LXFL 529
XF498 = tested on: XF498
HOP-18 = tested on: HOP-18
SNB-78 = tested on: SNB-78
DMS-273 = tested on: DMS-273
KM-20L2 = tested on: KM-20L2
M19-MEL = tested on: M19-MEL
DLD-1 = tested on: DLD-1
RXF 631 = tested on: RXF 631

Compound	GI50 (LXFL 529)	GI50 (XF498)	GI50 (HOP-18)	GI50 (SNB-78)	GI50 (DMS-273)	GI50 (KM-20L2)	GI50 (M19-MEL)	GI50 (DLD-1)	GI50 (RXF 631)
N#CC(C(=N/NC(N)=S)/C(=N/NC(N)=S)C(C#N)c1ccc(Cl)cc1)c1ccc(Cl)cc1 (configuration not stated)	49.7 µM (inactive)	> 100 µM (inactive)	94.2 µM (inactive)	35.6 µM (inactive)	> 100 µM (inactive)	> 100 µM (inactive)	> 100 µM (inactive)	34.1 µM (inactive)	–
[N-]=[N+]=Nc1cc(=O)n(-c2ccccc2)c2ccccc12	> 100 µM (inactive)	–	> 100 µM (inactive)	–	> 100 µM (inactive)	–	> 100 µM (inactive)	> 100 µM (inactive)	–
NNC(=S)N/N=C/C(=C/Nc1ccccc1)[N+](=O)[O-]	> 100 µM (inactive)	> 100 µM (inactive)	–	–	–	> 100 µM (inactive)	> 100 µM (inactive)	> 100 µM (inactive)	> 100 µM (inactive)
CCN(CC)CCN(C)CC(C)(C)C(=O)/C=C/c1ccccc1	12.3 µM (inactive)	12.4 µM (inactive)	15.9 µM (inactive)	–	13 µM (inactive)	11.1 µM (inactive)	11.6 µM (inactive)	5.46 µM (inactive)	–
CCC(/C(=N\Nc1c(Cl)cc(Cl)cc1Cl)c1ccccc1)n1ccnc1C (configuration not stated)	11.7 µM (inactive)	–	14.9 µM (inactive)	19.1 µM (inactive)	4.6 µM (inactive)	4.61 µM (inactive)	14.8 µM (inactive)	4.22 µM (inactive)	9.64 µM (inactive)
O=c1c2cc(Br)ccc2nc(-c2ccccc2)n1NCC1(O)OCC(O)C(O)C1O (configuration not stated)	92 µM (inactive)	–	–	> 100 µM (inactive)	> 100 µM (inactive)	> 100 µM (inactive)	> 100 µM (inactive)	–	–
OCC(O)C(OC1OC(CO)C(O)C(O)C1O)c1nn(-c2ccccc2)c2nc3cc(Cl)c(Cl)cc3cc12 (configuration not stated)	> 100 µM (inactive)	> 100 µM (inactive)	–	> 100 µM (inactive)	–	> 100 µM (inactive)	> 100 µM (inactive)	> 100 µM (inactive)	> 100 µM (inactive)
COC(=O)C(=O)C(C(=O)C(=O)Nc1cc(Cl)c(Cl)cc1Cl)c1nc2ccc([N+](=O)[O-])cc2nc1O (configuration not stated)	> 100 µM (inactive)	7.1 µM (inactive)	8.81 µM (inactive)	> 100 µM (inactive)	> 100 µM (inactive)	> 100 µM (inactive)	> 100 µM (inactive)	–	> 100 µM (inactive)
CC1(C)OC2OC(/C=C/[N+](=O)[O-])C3OC(C)(C)OC3C2O1 (configuration not stated)	2.76 µM (inactive)	–	23.1 µM (inactive)	14.2 µM (inactive)	17.3 µM (inactive)	19.5 µM (inactive)	14.2 µM (inactive)	1.61 µM (inactive)	–
COc1c(C)c2c(c3c1c(=O)c1ccccc1n3C)C=CC(C)(C)O2	26 µM (inactive)	24.9 µM (inactive)	38.1 µM (inactive)	31.7 µM (inactive)	14.8 µM (inactive)	16.4 µM (inactive)	31.7 µM (inactive)	34.5 µM (inactive)	–
Cc1cccc(C2=NC(C)(C)C(C)(C)N=C2c2cccc(C)n2)n1	70.5 µM (inactive)	> 100 µM (inactive)	> 100 µM (inactive)	> 100 µM (inactive)	> 100 µM (inactive)	84.1 µM (inactive)	> 100 µM (inactive)	98.6 µM (inactive)	> 100 µM (inactive)
COC1=C(C(=O)OC(C)(C)C)C23CCCCC2(C(C(=O)OC(C)(C)C)=C(OC)C3C(=O)OC(C)(C)C)C1C(=O)OC(C)(C)C (configuration not stated)	23.2 µM (inactive)	38.1 µM (inactive)	12.5 µM (inactive)	72.9 µM (inactive)	10.1 µM (inactive)	16.7 µM (inactive)	25 µM (inactive)	39.9 µM (inactive)	8.15 µM (inactive)
O=C(O)CCC(=O)OCN1C(=O)C2C3C=CC(C2C1=O)C1C2C(=O)N(COC(=O)CCC(=O)O)C(=O)C2C31 (configuration not stated)	> 100 µM (inactive)	> 100 µM (inactive)	76.9 µM (inactive)	> 100 µM (inactive)	> 43.2 µM (inactive)	> 100 µM (inactive)	> 61.1 µM (inactive)	> 57.7 µM (inactive)	–
CCCCCCCCCCCCCP(=O)(O)O	> 100 µM (inactive)	> 100 µM (inactive)	> 100 µM (inactive)	> 100 µM (inactive)	50.9 µM (inactive)	> 100 µM (inactive)	> 100 µM (inactive)	> 100 µM (inactive)	> 100 µM (inactive)
N#CCCN(CCC#N)c1ccc(C(Sc2ccccc2)C(NC(=O)c2cc([N+](=O)[O-])ccc2Cl)C(=O)Sc2ccccc2)cc1 (configuration not stated)	3.69 µM (inactive)	8.67 µM (inactive)	24 µM (inactive)	4.66 µM (inactive)	1.56 µM (inactive)	2.57 µM (inactive)	5.36 µM (inactive)	2.52 µM (inactive)	2.03 µM (inactive)
CNC(=S)NC(=S)N(C)C	> 100 µM (inactive)	> 100 µM (inactive)	> 100 µM (inactive)	> 100 µM (inactive)	0.869 µM (active)	> 100 µM (inactive)	–	5.48 µM (inactive)	> 100 µM (inactive)
Cc1ccc2oc(=O)c3c(O)c4cccc(OC5OC(C)C6O[C@@H](c7ccccc7)OC6C5OC5OC(C)C(O)C(O)C5O)c4c4oc(=O)c1c2c34 (some centres not stated)	0.0594 µM (active)	0.0486 µM (active)	0.466 µM (active)	0.708 µM (active)	0.0278 µM (active)	0.0354 µM (active)	0.11 µM (active)	0.156 µM (active)	0.0456 µM (active)
N#Cc1ccccc1NC(=O)/C(=N\N)C(C(=O)c1ccncc1)C1OC(=O)c2ccccc21 (configuration not stated)	> 100 µM (inactive)	> 100 µM (inactive)	–	–	–	> 100 µM (inactive)	> 100 µM (inactive)	–	–
COc1ccc(/C(=C\c2cc(OC)c(OC)c(OC)c2)C(=O)O)cc1	41 µM (inactive)	11.1 µM (inactive)	> 100 µM (inactive)	39 µM (inactive)	23.3 µM (inactive)	21 µM (inactive)	52 µM (inactive)	40.1 µM (inactive)	–
COC(=O)[C@]1(C)CCC[C@]2(C)C3CC4OOC3(C=C4C(C)(C)O)CCC21 (some centres not stated)	22.2 µM (inactive)	20.6 µM (inactive)	–	30.8 µM (inactive)	–	35.8 µM (inactive)	43 µM (inactive)	28.4 µM (inactive)	> 100 µM (inactive)
O=C1OCC2C1C1c3ccccc3C(O)c3ccccc3C21 (configuration not stated)	> 100 µM (inactive)	> 100 µM (inactive)	> 100 µM (inactive)	> 100 µM (inactive)	–	> 100 µM (inactive)	> 100 µM (inactive)	> 100 µM (inactive)	> 100 µM (inactive)
CC1=N/C(=C\c2ccc(/C=C3/N=C(C)OC3=O)cc2)C(=O)O1	> 100 µM (inactive)	> 100 µM (inactive)	> 100 µM (inactive)	> 100 µM (inactive)	> 100 µM (inactive)	> 100 µM (inactive)	> 100 µM (inactive)	> 100 µM (inactive)	–
CC1(c2cccc3c2C2(O)C=CC4(CCC32)OCCO4)OCCO1 (configuration not stated)	> 100 µM (inactive)	–	> 100 µM (inactive)	> 100 µM (inactive)	> 100 µM (inactive)	> 100 µM (inactive)	> 100 µM (inactive)	> 100 µM (inactive)	–
CCN(CC)C(=O)CCn1cc(F)c(=O)[nH]c1=O	> 100 µM (inactive)	> 100 µM (inactive)	–	> 100 µM (inactive)	> 100 µM (inactive)	> 100 µM (inactive)	> 100 µM (inactive)	–	–
COc1cccc(N2C(=O)c3c(c4[nH]c5ccccc5c4c4ccc(C(C)(C)C)cc34)C2=O)c1	> 100 µM (inactive)	> 100 µM (inactive)	> 100 µM (inactive)	> 100 µM (inactive)	> 100 µM (inactive)	> 100 µM (inactive)	> 100 µM (inactive)	> 100 µM (inactive)	> 100 µM (inactive)
CN(C)CC1CC/C(=C\c2ccc3c(c2)OCO3)C1=O (configuration not stated)	12.6 µM (inactive)	18.3 µM (inactive)	15.9 µM (inactive)	21.8 µM (inactive)	16.8 µM (inactive)	19.7 µM (inactive)	16.4 µM (inactive)	6.84 µM (inactive)	12.7 µM (inactive)
COc1ccc(C(=O)O)c(Cc2ccc3ccccc3c2)c1	> 100 µM (inactive)	> 100 µM (inactive)	> 100 µM (inactive)	> 100 µM (inactive)	> 100 µM (inactive)	> 100 µM (inactive)	> 100 µM (inactive)	> 100 µM (inactive)	–
COc1ccc(C(C)Nc2cc(OC)c(OC)c(OC)c2)cc1 (configuration not stated)	6.38 µM (inactive)	6.89 µM (inactive)	> 100 µM (inactive)	4.08 µM (inactive)	1.82 µM (inactive)	2.57 µM (inactive)	4.75 µM (inactive)	5.81 µM (inactive)	–
CCOC(=O)c1cc(=O)n(C)c(=O)n1C	> 100 µM (inactive)	> 100 µM (inactive)	> 100 µM (inactive)	> 100 µM (inactive)	> 100 µM (inactive)	> 100 µM (inactive)	> 100 µM (inactive)	> 100 µM (inactive)	–
O=C(CCc1cc(-c2ccc(F)cc2)n[nH]1)N(Cc1ccccc1)Cc1ccccc1	> 100 µM (inactive)	> 100 µM (inactive)	> 100 µM (inactive)	> 100 µM (inactive)	> 100 µM (inactive)	> 100 µM (inactive)	> 100 µM (inactive)	–	–

From ChEMBL document CHEMBL1201862, “PubChem BioAssay data set” (2004)
